Assay results taken from patent US20170184604A1, “DD1ALPHA RECEPTOR AND USES THEREOF IN IMMUNE DISORDERS” (THE GENERAL HOSPITAL CORPORATION, priority 2014, published 2017).

Key:
[1] = system: naïve CD4+CD62L+ T cells; assay: iTreg cell development assay; format: cell-based, mouse; settings: for frequency of Foxp3+CD4+ T cells (iTreg): anti-CD3 and anti-CD28
Description: Enriched human CD4+ T cells and CD8+ T cells were stained with CFSE (1 μM) and stimulated with plate-bound anti-CD3 antibody (3 μg/ml) together with 2, 5, or 10 μg/ml of DD1α-Ig proteins or control Ig proteins. The proliferations of CD4+ T or CD8+ T cells were determined by the percentages of CFSE-labeled CD4+ T or CD8+ T cells at the 72-hour culture. The levels of cytokines IFN-γ and TNF-α in culture supernatant were analyzed by ELISA at the 48-hour culture. […] The proliferation and cytokine production of CD4+ T cells were determined as FIG. 5A. […] The proliferations of CD4+ T cells were determined by percentage of CFSE-diluted CD4+ cells on day 3. The levels of cytokines IFN-γ and IL-2 in culture supernatant were analyzed by ELISA on day 2. […] Data are shown as mean±SD and representative of three experiments.
The cell culture plates were coated with anti-CD3 (145-2C11, eBioscience) together with mDD1α-Ig, mPD-L1-Ig or control Ig proteins. CD4+CD62L+naïve T cells were purified from splenocytes freshly isolated from Wt mice using CD4+CD62L+ T Cell Isolation Kit II (Miltenyi Biotec) and cultured in complete RPMI-1640 media added by anti-CD28 (37.51, eBioscience) and TGF-β (BioLegend) on the anti-CD3 & Ig proteins-coated plates. On day 3, cells were stained with anti-CD4-APC (RM4-5, eBioscience) and anti-mouse Foxp3-PE (FJK-16s, eBioscience) and analyzed for Foxp3 expression on CD4+ T cells by flow cytometry.

[2] = molecular target: T1, PD-1 (Homo sapiens, UniProt Q15116); assay: Ig fusion protein-pull down assay; format: binding
T1 construct: full length human PD-1 and Tim3 cDNA (Sino biological) were cloned into pcDNA3.1(−) tagged with HA at C-terminus; host or cells: HEK293T
T1 sequence (Q15116 25-288): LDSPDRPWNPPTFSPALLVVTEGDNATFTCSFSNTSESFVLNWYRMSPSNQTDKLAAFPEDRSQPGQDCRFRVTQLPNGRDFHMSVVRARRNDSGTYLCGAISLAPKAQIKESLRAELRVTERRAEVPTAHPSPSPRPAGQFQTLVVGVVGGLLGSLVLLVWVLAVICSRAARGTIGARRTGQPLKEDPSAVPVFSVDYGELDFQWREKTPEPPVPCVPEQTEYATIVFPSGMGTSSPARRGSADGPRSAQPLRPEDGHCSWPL
Description: FIGS. 6A-6E show physical association of DD1α with PD1 but not with PD-L1. (FIG. 6A) Interaction of DD1α with PD1 or DD1α. […] The bound Ig fusion proteins were detected with anti-Ig-APC. Empty vector (pcDNA3.1)-transfected cells stained with Ig proteins are shown as a negative control (gray filled) and other staining is shown as black open. (FIG. 6B) DD1α binds to both DD1α and PD1 on CD4+ T cells. Purified CD4+ T cells from Wt and DD1α−/− mice were assayed for binding to Ig fused DD1α or PD1 proteins. Cells were incubated with DD1α-Ig (open), PD1-Ig (open), or control Ig proteins (gray filled) and the bound Ig fusion proteins were detected by anti-Ig-APC. […] The bound Ig fusion proteins were detected by anti-Ig-APC. Binding amounts were determined by percentage of APC positive cells compared to control Ig protein-bound cells. (FIG. 6C) Ig-pulldown experiments show DD1α interaction with both DD1α and PD1. […] The bead bound proteins were eluted and determined by western blot analysis using anti-HA antibody (asterisks). […] The bead bound proteins were eluted and detected by western blot analysis with anti-DD1α or anti-PD1 antibody (asterisk). […] The levels of indicated proteins were analyzed by western blot analysis. Total RNAs from control siRNA or p53 siRNA transfected MCF7 cells were assessed for mRNA levels of PD1 or PD-L1 by real-time quantitative PCR. […]

## DD1α-Ig: the extracellular region of DD1α fused with the immunoglobulin G Fc segment
[1]; alone without TGF-β
  iTreg cell generation: did not affect
[1]; 1 ng/ml TGF-β, control Ig 14.2%
  frequency of Foxp3+CD4+ T cells (iTreg): 31.4%
[1]; 2 ng/ml TGF, control Ig 32.6%
  frequency of Foxp3+CD4+ T cells (iTreg): 51.7%
[1]; in the presence of TGF-β
  iTreg cell development: significantly enhanced
[2]; lysates from transfected 293T cells
  pull down of PD-1: pulled down
[2]; lysates of Nutlin-3-treated MCF7 cells
  pull down of endogenous PD-1: found
